Experimental data as given in article PMC7822592, “The half-life of the bone-derived hormone osteocalcin is regulated through O-glycosylation in mice, but not in humans” (eLife, 2020).

Test system: primary osteoblasts
Assay: Percentage of carboxylated OCN (Gla-OCN) over total OCN by ELISA in osteoblast secretion medium
Format: cell-based, mouse
Experimental: Primary osteoblasts were transfected using jetPRIME Reagent (Polypus transfection). After an overnight incubation, media were changed to secretion media (FBS-free αMEM plus 2 mM L-glutamine, PS). After 24 hr of secretion, media were collected, and cells were lysed in protein lysis buffer (20 mM Tris-HC pH 7.4, 150 mM NaCl, 1 mM EDTA, 1 mM EGTA, 1% Triton, 1 mM PMSF, and 1 × protease inhibitor cocktail) and analyzed by western blotting. In some experiments, osteoblasts were treated with the γ-carboxylation inhibitor warfarin (50 μM; Santa Cruz Biotechnology), the N-acetylgalactosaminyltransferase inhibitor GalNAc-bn (2 mM, Sigma) or the proprotein convertase inhibitor Dec-RVKR-CMK (50 μM, Tocris), combined with 22 μM vitamin K1 (Sigma).

`CC(=O)N[C@H]1[C@@H](OCc2ccccc2)O[C@H](CO)[C@H](O)[C@@H]1O` [GalNAc-bn, benzyl-N-acetyl-α-galactosaminide] was tested, and the “Gla OCN (% of total)” value (osteoblasts transfected with OCN-V5, inhibitor 2 mM, secretion medium, Figure 2C, replicate 1) was 43.4 % of total and the “Gla OCN (% of total)” value (osteoblasts transfected with OCN-V5, inhibitor 2 mM, secretion medium, Figure 2C, replicate 2) was 43.4 % of total.

For `CC(=O)CC(c1ccccc1)c1c(O)c2ccccc2oc1=O` (stereo not shown) [Warfarin], the “Gla OCN (% of total)” value (osteoblasts transfected with OCN-V5, inhibitor 50 μM, Figure 2D/2E, replicate 1) was 29.8 % of total, the “Gla OCN (% of total)” value (osteoblasts transfected with OCN-V5, inhibitor 50 μM, Figure 2D/2E, replicate 2) was 27.1 % of total and the “Gla OCN (% of total)” value (osteoblasts transfected with OCN-V5, inhibitor 50 μM, Figure 2D/2E, replicate 3) was 26.1 % of total. For the same compound, the “Gla OCN (% of total)” value (osteoblasts transfected with OCN-V5, inhibitor 50 μM, secretion medium, Figure 2C, replicate 1) was 14.3 % of total, the “Gla OCN (% of total)” value (osteoblasts transfected with OCN-V5, inhibitor 50 μM, secretion medium, Figure 2C, replicate 2) was 19.5 % of total and the “Gla OCN (% of total)” value (osteoblasts transfected with OCNS8A-V5, inhibitor 50 μM, Figure 2D/2E, replicate 1) was 26.8 % of total. For the same compound, the “Gla OCN (% of total)” value (osteoblasts transfected with OCNS8A-V5, inhibitor 50 μM, Figure 2D/2E, replicate 2) was 20.4 % of total and the “Gla OCN (% of total)” value (osteoblasts transfected with OCNS8A-V5, inhibitor 50 μM, Figure 2D/2E, replicate 3) was 29.1 % of total.
